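48-hour exposure; five concentrations; linearly interpolated endpoints. GI50 marks 50% less growth. TGI marks complete inhibition of growth.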 Where only a bound is given, the exact number is not on record here.

Among the test systems are IGROV1 ovarian; HCC-2998 colon; OVCAR-3 ovarian; COLO 205 colon; HOP-92 NSCLC; MDA-MB-231 breast; DU-145 prostate; MCF7 breast; ACHN renal; UO-31 renal.
Common to all, as to assay: DTP human tumour cell line panel, 48 h

As for `CN(C)CCCN=c1cc2c(=O)n(CCCN(C)C)c(=O)c3c(NCCCN(C)C)cc4c(O)n(CCCN(C)C)c(=O)c1c4c3-2`, the GI50 with IGROV1 ovarian was 2.34 µM; with HCC-2998 colon, 5.68 µM; with OVCAR-3 ovarian, 2.26 µM; with COLO 205 colon, 1.03 µM; in the test on HOP-92 NSCLC it was 1.81 µM; in the test on MDA-MB-231 breast, 3.02 µM. Further, the GI50 is 2.5 µM in the test with DU-145 prostate, 0.409 µM in the test on MCF7 breast, 0.736 µM with ACHN renal and 2.92 µM in the test on UO-31 renal. In addition, the concentration for total growth inhibition (TGI) in the test with IGROV1 ovarian worked out at 8.29 µM; with HCC-2998 colon, 22.9 µM; in the test with OVCAR-3 ovarian, 7.88 µM; with COLO 205 colon, 2.62 µM; in the test with HOP-92 NSCLC, 14.2 µM; in the test with MDA-MB-231 breast, 16.3 µM. The TGI in the test on DU-145 prostate was found to be 9.51 µM; in the test on MCF7 breast, 9.4 µM; in the test with ACHN renal it was 12.4 µM; in the test with UO-31 renal it was 12.9 µM.

Take `O=C1CCC2=C3C4CCCCC4C(=O)C4CCCC(OC2C1)C34` (configuration not stated): the GI50 was 1.64 µM with IGROV1 ovarian; 3.41 µM with HCC-2998 colon; 0.428 µM in the test on OVCAR-3 ovarian; 17.7 µM with COLO 205 colon; 2.43 µM in the test on HOP-92 NSCLC; 1.47 µM in the test with MDA-MB-231 breast. Further, the GI50 was 0.357 µM in the test with DU-145 prostate, 1.21 µM with MCF7 breast, 0.382 µM in the test on ACHN renal and 0.487 µM in the test with UO-31 renal. For the same molecule, the concentration for total growth inhibition (TGI) is 6.15 µM in the test with IGROV1 ovarian; 15.7 µM in the test on HCC-2998 colon; 2.73 µM in the test with OVCAR-3 ovarian; greater than 72.7 µM in the test with COLO 205 colon; 8.95 µM with HOP-92 NSCLC; greater than 27.6 µM with MDA-MB-231 breast. The TGI with DU-145 prostate was 2.1 µM; in the test with MCF7 breast, greater than 100 µM; in the test on UO-31 renal, 3.88 µM.

For the molecule `C#Cc1cccc(Nc2ncnc3ccc(-c4cnc(Cl)c(NS(C)(=O)=O)c4)cc23)c1`, the GI50 in the test on IGROV1 ovarian is 0.075 µM; with HCC-2998 colon, 0.416 µM; in the test on OVCAR-3 ovarian it was 0.197 µM; in the test with COLO 205 colon it was 0.648 µM; in the test on HOP-92 NSCLC, 0.078 µM; in the test on MDA-MB-231 breast, 0.44 µM. Besides, the GI50 was 0.434 µM in the test with DU-145 prostate, 0.104 µM in the test on MCF7 breast, 0.442 µM in the test with ACHN renal and 0.111 µM in the test on UO-31 renal. Further, the concentration for total growth inhibition (TGI) in the test on IGROV1 ovarian turned out to be 0.402 µM; with HCC-2998 colon, 1.78 µM; in the test on OVCAR-3 ovarian it was 1.29 µM; in the test on COLO 205 colon it was 2.12 µM; in the test with HOP-92 NSCLC, 0.835 µM; in the test on MDA-MB-231 breast it was 3.66 µM. The TGI was 6.99 µM in the test on DU-145 prostate, 2.57 µM in the test on MCF7 breast, greater than 100 µM in the test on ACHN renal and 1.41 µM with UO-31 renal.

Turning to `O=C(O[C@H]1CN[C@H](C#Cc2cc3ncnc(Nc4ccc(OCc5cccc(F)c5)c(Cl)c4)c3s2)C1)N1CCOCC1`, the GI50 with IGROV1 ovarian was 2.69 µM; in the test with HCC-2998 colon it was 5.01 µM; in the test with OVCAR-3 ovarian, 4.12 µM; in the test on COLO 205 colon it was 5.32 µM; in the test on HOP-92 NSCLC, 1.45 µM; with MDA-MB-231 breast, 5.09 µM. Further, the GI50 with DU-145 prostate is 5.96 µM; in the test with MCF7 breast, 8.57 µM; with ACHN renal, 4.27 µM; in the test on UO-31 renal, 4.41 µM. Further, the TGI with IGROV1 ovarian is greater than 25 µM; with HCC-2998 colon, 12.6 µM; in the test on OVCAR-3 ovarian it was 11.1 µM; with COLO 205 colon, 11.1 µM; in the test on HOP-92 NSCLC it was 9.96 µM; with MDA-MB-231 breast it was 14.5 µM. The concentration for total growth inhibition (TGI) with DU-145 prostate is greater than 25 µM; in the test with MCF7 breast, greater than 25 µM; with ACHN renal it was greater than 25 µM; with UO-31 renal it was greater than 15.8 µM.

As to `CC1OC(O[C@H]2/C=C/C=C/C=C/C=C/C=C/C=C/C=C/[C@H](C)[C@@H](O)[C@@H](C)[C@H](C)OC(=O)C[C@H](O)C[C@H](O)CC[C@@H](O)[C@H](O)C[C@H](O)C[C@]3(O)C[C@H](O)[C@@H](C(=O)O)[C@H](C2)O3)C(O)C(N)C1O` (some centres not stated), the TGI amounted to 20.7 µM in the test with IGROV1 ovarian; 61.2 µM with HCC-2998 colon; 27.2 µM with OVCAR-3 ovarian; 45.2 µM in the test on COLO 205 colon; 52.9 µM in the test with HOP-92 NSCLC; 48.2 µM in the test on MDA-MB-231 breast. The total growth inhibition concentration (TGI) in the test with DU-145 prostate stood at 39.2 µM; in the test with MCF7 breast, 56.1 µM; in the test with ACHN renal, 20.5 µM; in the test on UO-31 renal it was 4.27 µM. Further, the GI50 in the test with MDA-MB-231 breast was 32.9 µM; in the test with DU-145 prostate it was 12.7 µM; in the test with ACHN renal it was 6.47 µM.

For `CN(C)c1ccc2cc(-c3cc4c(oc3=O)-c3ccccc3OC4O)c(=O)oc2c1` (configuration not stated), the GI50 was 5.07 µM with IGROV1 ovarian; 6.99 µM in the test with HCC-2998 colon; 5.9 µM with OVCAR-3 ovarian; 3.89 µM in the test with COLO 205 colon; 7.49 µM in the test with HOP-92 NSCLC; 4.9 µM in the test with MDA-MB-231 breast. The GI50 in the test with DU-145 prostate was 5.18 µM; with MCF7 breast it was 3.23 µM; with ACHN renal it was 4.29 µM; in the test on UO-31 renal, 5.09 µM. For the same molecule, the concentration for total growth inhibition (TGI) in the test with IGROV1 ovarian was 12 µM; in the test on HCC-2998 colon it was 20.2 µM; in the test on OVCAR-3 ovarian, greater than 25 µM; in the test on COLO 205 colon, 8.19 µM; with HOP-92 NSCLC it was 17.7 µM; in the test on MDA-MB-231 breast it was 11.5 µM. Moreover, the concentration for total growth inhibition (TGI) in the test with DU-145 prostate came to 15.9 µM; in the test with MCF7 breast, 11.2 µM; with ACHN renal it was 12.5 µM; in the test on UO-31 renal it was 12.7 µM.

Consider `COC1CC2C=CC3C4OC2(/C(C)=C/C(C)C(C(C)O)OC1=O)C3C(O)C(C)C4OC(=O)c1ccc[nH]1` (configuration not stated), for which the TGI in the test on IGROV1 ovarian, with HCC-2998 colon, with OVCAR-3 ovarian, with COLO 205 colon, in the test with HOP-92 NSCLC and in the test on MDA-MB-231 breast was greater than 100 µM each time. In addition, the TGI in the test with DU-145 prostate, with MCF7 breast, in the test with ACHN renal and in the test on UO-31 renal was greater than 100 µM in each case.

As for `O=C1/C=C/[C@@H](O)[C@@H]2C[C@@H](O)C[C@H]2/C=C/CCC[C@H](CO)O1`, the GI50 with IGROV1 ovarian is 4.2 µM; in the test with HCC-2998 colon it was 2.61 µM; in the test with OVCAR-3 ovarian it was 2.2 µM; in the test with COLO 205 colon, 1.7 µM; with HOP-92 NSCLC, 2.76 µM; with MDA-MB-231 breast it was 1.96 µM. For the same molecule, the GI50 with DU-145 prostate is 7.75 µM; in the test on MCF7 breast, 1.79 µM; with ACHN renal, 3.97 µM; in the test with UO-31 renal it was 2.98 µM. The TGI in the test on IGROV1 ovarian is greater than 100 µM; with HCC-2998 colon, greater than 100 µM; in the test with OVCAR-3 ovarian, greater than 100 µM; in the test with COLO 205 colon, 3.32 µM; in the test with HOP-92 NSCLC, greater than 100 µM; in the test on MDA-MB-231 breast, 4.81 µM. Also, the TGI with DU-145 prostate is greater than 100 µM; in the test on MCF7 breast, 5.88 µM; in the test on ACHN renal it was greater than 100 µM; in the test with UO-31 renal it was greater than 100 µM.
